In ChEMBL document CHEMBL1201862, “PubChem BioAssay data set” (2004):
Active and inactive are the calls of the source.

Key:
Cytochrome P450 3A4 = Cytochrome P450 3A4 (Homo sapiens, UniProt P08684);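 note: CYP3A4 tested as one member of a cytochrome P450 panel screen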
Aminopeptidase N = target: T1, Aminopeptidase N (Plasmodium falciparum FcB1/Columbia, UniProt O96935); test: malaria alanyl aminopeptidase activity blockers – biochemical, fluorogenic H-Leu-NHMec substrate, 1536-well (AID 1445); design: species or system Plasmodium falciparum 3D7, 3D7
T1 sequence (O96935 whole entry): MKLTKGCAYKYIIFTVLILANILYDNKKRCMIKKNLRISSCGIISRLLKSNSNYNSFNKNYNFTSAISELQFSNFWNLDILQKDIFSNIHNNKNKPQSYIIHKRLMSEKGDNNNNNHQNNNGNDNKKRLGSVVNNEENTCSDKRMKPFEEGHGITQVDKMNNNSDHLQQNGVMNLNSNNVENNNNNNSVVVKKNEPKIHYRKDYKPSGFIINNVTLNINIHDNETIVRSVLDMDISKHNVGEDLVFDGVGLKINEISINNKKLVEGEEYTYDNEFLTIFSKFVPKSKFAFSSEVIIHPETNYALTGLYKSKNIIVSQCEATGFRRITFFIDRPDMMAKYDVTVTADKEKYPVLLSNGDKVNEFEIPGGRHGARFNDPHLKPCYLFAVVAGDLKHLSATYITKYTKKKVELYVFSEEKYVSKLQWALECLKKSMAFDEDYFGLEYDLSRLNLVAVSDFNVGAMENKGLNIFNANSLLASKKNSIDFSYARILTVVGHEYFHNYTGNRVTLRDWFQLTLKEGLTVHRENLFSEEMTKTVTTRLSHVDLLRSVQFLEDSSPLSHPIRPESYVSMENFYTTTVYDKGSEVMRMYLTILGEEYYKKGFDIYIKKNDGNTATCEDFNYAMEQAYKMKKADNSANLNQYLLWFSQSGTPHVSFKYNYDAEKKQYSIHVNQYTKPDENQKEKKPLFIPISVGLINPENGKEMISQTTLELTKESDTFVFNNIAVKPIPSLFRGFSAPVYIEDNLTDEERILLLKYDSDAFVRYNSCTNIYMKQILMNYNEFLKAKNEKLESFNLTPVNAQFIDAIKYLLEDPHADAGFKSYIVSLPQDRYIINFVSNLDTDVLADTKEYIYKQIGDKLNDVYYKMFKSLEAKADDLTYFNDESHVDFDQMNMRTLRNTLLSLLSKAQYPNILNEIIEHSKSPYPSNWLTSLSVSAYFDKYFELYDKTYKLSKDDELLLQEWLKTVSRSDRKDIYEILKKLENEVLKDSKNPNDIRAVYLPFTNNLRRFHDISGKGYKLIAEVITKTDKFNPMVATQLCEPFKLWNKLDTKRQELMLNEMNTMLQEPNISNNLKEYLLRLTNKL

SUMO-activating enzyme [1] = target: T2, SUMO-activating enzyme (Homo sapiens, UniProt Q9UBT2); test: blockers of UBC9-mediated SUMO conjugation – biochemical, AlphaScreen, SUMOylation inhibitor project, confirmation (AID 2018); assay type: functional
T2 sequence (Q9UBE0 whole entry): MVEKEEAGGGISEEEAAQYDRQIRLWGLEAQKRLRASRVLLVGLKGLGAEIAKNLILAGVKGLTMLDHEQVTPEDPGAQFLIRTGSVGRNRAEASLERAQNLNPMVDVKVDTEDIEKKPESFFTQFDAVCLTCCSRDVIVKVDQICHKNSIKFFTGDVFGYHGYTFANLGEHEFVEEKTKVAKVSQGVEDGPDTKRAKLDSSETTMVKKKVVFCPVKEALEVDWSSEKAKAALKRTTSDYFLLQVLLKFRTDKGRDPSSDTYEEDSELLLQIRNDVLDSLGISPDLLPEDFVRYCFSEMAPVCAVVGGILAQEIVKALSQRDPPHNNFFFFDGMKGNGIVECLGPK
T2 sequence (Q9UBT2 whole entry): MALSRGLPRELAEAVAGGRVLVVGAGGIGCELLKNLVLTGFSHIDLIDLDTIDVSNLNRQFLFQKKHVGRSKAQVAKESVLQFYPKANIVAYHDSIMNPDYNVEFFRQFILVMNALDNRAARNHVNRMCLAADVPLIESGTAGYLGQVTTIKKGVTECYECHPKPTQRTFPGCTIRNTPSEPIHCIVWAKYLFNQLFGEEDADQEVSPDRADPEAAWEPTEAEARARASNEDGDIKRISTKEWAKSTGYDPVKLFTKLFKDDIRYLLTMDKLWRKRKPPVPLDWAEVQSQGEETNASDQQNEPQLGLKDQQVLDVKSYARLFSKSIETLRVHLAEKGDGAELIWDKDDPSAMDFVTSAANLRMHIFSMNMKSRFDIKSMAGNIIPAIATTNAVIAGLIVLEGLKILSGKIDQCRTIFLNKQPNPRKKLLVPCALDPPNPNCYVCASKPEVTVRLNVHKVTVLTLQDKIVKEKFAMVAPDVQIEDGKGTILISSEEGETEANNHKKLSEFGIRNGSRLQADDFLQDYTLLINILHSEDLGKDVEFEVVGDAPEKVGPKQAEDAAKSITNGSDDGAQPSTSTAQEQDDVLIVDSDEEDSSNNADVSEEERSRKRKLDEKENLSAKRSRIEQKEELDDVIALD

SUMO-activating enzyme [2] = target: T2, SUMO-activating enzyme; test: blockers of SAE1/SAE2–UBC9 SUMO transfer – biochemical, HTRF, uHTS, primary screen (AID 2006); assay type: protein-complex assay
[3] = target: Induced myeloid leukemia cell differentiation protein Mcl-1 (Homo sapiens, UniProt Q07820); assay type: functional
Induced myeloid leukemia cell differentiation protein Mcl-1, sequence (Q07820 whole entry): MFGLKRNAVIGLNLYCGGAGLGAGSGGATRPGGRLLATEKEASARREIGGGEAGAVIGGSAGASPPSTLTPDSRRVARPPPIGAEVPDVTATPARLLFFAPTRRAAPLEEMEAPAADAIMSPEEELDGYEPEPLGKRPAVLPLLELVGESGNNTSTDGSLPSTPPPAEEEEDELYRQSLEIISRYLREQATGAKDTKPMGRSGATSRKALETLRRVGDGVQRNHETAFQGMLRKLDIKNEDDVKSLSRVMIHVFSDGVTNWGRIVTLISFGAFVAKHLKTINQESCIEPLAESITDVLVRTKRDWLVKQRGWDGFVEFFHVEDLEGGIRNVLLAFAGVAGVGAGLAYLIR

Cytochrome P450 2C19 = Cytochrome P450 2C19 (Homo sapiens, UniProt P33261); test: Cytochrome panel assay with activity outcomes. Panel member name: p450-cyp2c19 Compounds with AC50 equal or less than 10 uM are considered active; assay type: functional; conditions: read-out: AC50
Cytochrome P450 2C19, sequence (P33261 whole entry): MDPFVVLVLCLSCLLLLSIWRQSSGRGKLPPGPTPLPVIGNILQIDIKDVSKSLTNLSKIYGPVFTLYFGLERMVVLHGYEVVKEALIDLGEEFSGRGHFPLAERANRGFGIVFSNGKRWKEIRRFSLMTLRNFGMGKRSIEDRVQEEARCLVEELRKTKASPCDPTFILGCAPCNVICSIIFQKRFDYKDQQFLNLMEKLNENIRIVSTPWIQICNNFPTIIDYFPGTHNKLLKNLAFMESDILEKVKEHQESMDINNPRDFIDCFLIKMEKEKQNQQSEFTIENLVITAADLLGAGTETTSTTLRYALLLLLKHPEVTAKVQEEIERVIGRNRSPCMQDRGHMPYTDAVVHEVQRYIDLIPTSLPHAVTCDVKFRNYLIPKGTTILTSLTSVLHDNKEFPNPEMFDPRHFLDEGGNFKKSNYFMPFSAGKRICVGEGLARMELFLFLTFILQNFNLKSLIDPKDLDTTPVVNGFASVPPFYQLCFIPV

Cytochrome P450 2C9 = Cytochrome P450 2C9 (Homo sapiens, UniProt P11712)
Cytochrome P450 2C9, sequence (P11712 whole entry): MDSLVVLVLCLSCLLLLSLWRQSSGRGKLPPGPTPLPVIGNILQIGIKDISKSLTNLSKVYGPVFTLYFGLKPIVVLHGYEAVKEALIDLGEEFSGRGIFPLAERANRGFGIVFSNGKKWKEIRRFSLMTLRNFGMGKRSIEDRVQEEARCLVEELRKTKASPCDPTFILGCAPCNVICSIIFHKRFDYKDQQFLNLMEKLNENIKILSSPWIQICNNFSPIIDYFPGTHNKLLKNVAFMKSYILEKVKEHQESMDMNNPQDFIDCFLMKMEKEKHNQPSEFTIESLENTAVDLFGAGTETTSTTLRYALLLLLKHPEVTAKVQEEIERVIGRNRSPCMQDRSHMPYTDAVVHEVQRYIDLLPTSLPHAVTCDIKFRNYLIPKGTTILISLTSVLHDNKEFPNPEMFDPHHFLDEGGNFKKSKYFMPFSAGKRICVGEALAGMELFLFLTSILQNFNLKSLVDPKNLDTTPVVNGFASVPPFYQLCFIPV

Bcl-2-related protein A1 = target: T3, Bcl-2-related protein A1 (Mus musculus, UniProt Q07440); assay type: functional;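 note: confirmatory dose–response counterscreen on Bfl-1, used to check hits from a UBC13 polyubiquitin inhibitor campaign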
T3 sequence (Q07440 whole entry): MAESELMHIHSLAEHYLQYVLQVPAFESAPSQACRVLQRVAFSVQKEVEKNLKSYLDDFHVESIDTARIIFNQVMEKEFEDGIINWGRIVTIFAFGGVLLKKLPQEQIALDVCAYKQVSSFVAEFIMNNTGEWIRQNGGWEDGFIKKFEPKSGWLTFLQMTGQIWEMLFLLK

[4] = target: T4, Ubiquitin-conjugating enzyme E2 N (Homo sapiens, UniProt P61088); assay type: functional
T4 sequence (P61088 whole entry): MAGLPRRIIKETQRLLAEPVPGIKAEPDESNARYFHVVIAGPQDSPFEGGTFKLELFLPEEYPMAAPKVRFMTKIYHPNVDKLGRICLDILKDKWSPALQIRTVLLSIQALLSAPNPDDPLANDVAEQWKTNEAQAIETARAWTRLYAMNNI

[5] = target: T4, Ubiquitin-conjugating enzyme E2 N; assay type: functional; remark: listed apart in the source
[6] = NIH-3T3 fibroblast cytotoxicity, dose response, cytotoxicity control, cell-based, fluorescence, Alamar Blue, secondary assay (AID 2327); assay type: functional;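 note: NIH-3T3 mouse fibroblasts cultured with fluconazole at 8 µg/mL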
[7] = fluconazole-exposed Candida albicans growth modulators – fluorescence, retest, confirmation (AID 2467); assay type: functional, cell-based
[8] = Trypanosoma cruzi growth suppression in host cells – NIH3T3 host cells, beta-gal luminescence, confirmation (AID 2044); assay type: functional, cell-based;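 note: intracellular parasites grown in NIH/3T3 mouse fibroblasts as host cells; luminescent beta-galactosidase reporter signal from transgenic T. cruzi replicating inside host cells; inhibitors lower the luminescence signal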
[9] = NIH3T3 cell viability loss – ATP luminescence, mouse fibroblasts, counter-screen, dose response (AID 2010); assay type: functional, cell-based;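 note: cells exposed to compound for about 90 hours before reading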
[10] = target: T5, Microphthalmia-associated transcription factor (Homo sapiens, UniProt O75030); test: reducers of TRPM1 reporter luminescence, concentration series – cell-based, SK-MEL-5, cherry-picked, set 3, MITF inhibitor project, dose response (AID 493073); assay type: functional;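 note: SK-MEL-5 melanoma cells with luciferase driven by the MITF target TRPM1 promoter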
T5 sequence (O75030 whole entry): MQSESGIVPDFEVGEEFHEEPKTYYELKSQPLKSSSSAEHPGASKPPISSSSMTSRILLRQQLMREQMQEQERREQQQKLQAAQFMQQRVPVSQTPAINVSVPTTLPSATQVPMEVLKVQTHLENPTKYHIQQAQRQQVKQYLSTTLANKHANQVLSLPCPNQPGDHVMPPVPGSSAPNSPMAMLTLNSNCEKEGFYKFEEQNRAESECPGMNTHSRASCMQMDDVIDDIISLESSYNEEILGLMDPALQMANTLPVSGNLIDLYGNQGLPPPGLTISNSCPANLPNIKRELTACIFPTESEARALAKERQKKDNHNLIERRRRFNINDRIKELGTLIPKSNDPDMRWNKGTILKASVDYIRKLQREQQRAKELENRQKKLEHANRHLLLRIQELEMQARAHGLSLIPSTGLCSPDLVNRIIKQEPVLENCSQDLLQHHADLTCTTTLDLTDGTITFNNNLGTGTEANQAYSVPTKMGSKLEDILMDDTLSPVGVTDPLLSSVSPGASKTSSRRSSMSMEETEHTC

INS1 = test: INS-1E survival protection against cytokine death – cell-based, luminescence, retest, dose response (AID 449756); assay type: functional; conditions: Rattus norvegicus;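 note: cell death triggered by IL-1 beta plus TNF-alpha plus IFN-gamma mixture; protective hits raise ATP signal compared with cytokine alone wells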
Cytochrome P450 1A2 = target: T6, Cytochrome P450 1A2 (Homo sapiens, UniProt P05177);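 note: PubChem cytochrome P450 panel assay, CYP1A2 panel member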
T6 sequence (P05177 whole entry): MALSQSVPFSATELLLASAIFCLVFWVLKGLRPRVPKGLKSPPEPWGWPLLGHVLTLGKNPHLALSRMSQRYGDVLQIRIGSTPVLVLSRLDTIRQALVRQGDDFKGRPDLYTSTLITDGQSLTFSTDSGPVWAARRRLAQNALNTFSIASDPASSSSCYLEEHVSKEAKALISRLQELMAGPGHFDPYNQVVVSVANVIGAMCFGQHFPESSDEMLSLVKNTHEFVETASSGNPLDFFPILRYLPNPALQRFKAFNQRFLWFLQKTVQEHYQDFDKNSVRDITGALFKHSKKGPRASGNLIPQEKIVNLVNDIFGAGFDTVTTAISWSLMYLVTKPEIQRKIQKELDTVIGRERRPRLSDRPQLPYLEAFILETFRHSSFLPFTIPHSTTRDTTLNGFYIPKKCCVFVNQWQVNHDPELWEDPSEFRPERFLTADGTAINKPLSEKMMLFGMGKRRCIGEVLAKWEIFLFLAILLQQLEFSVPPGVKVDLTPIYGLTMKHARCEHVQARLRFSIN

[11] = target: T7, High affinity choline transporter 1 (Homo sapiens, UniProt Q9GZV3); test: human choline transporter blockers, potency – cell-based, 5-point CRC, membrane potential dye, dose response (AID 504840); assay type: functional
T7 sequence (Q9GZV3 whole entry): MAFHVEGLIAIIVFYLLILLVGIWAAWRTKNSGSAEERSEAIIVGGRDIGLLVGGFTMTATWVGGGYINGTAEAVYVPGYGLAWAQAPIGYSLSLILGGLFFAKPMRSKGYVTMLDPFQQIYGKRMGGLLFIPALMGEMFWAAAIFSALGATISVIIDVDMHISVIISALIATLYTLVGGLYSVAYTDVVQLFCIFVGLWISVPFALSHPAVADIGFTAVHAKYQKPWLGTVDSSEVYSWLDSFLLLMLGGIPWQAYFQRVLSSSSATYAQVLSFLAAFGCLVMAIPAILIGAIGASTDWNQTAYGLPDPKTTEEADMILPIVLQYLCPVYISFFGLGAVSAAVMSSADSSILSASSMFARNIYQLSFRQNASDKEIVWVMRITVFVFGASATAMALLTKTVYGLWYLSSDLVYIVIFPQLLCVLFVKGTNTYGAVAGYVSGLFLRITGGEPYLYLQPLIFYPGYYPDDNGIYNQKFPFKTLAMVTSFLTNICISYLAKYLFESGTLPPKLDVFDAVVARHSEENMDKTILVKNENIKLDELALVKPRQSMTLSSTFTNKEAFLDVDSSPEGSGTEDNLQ

[12] = target: T8, Endoribonuclease toxin MazF (Escherichia coli K-12, UniProt P0AE70); test: activation of MazEF endoribonuclease cleavage – biochemical, fluorescence, single-stranded RNA substrate, uHTS hits, dose response (AID 588481); assay type: functional
T8 sequence (P0AE70 whole entry): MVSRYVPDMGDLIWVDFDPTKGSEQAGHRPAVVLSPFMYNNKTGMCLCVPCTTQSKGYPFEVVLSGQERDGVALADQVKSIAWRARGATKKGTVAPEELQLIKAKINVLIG

[13] = target: T8, Endoribonuclease toxin MazF; test: substrate-only fluorescence increase artefacts – biochemical, single-stranded RNase substrate, counter-screen for MazEF activator project, dose response (AID 588502); assay type: functional
[14] = target: T9, Calpain-2 catalytic subunit (Sus scrofa, UniProt P43367); test: m-calpain protease blockers, concentration series – biochemical, fluorogenic peptide substrate, dose response (AID 1420); assay type: functional
T9 sequence (P43367 whole entry): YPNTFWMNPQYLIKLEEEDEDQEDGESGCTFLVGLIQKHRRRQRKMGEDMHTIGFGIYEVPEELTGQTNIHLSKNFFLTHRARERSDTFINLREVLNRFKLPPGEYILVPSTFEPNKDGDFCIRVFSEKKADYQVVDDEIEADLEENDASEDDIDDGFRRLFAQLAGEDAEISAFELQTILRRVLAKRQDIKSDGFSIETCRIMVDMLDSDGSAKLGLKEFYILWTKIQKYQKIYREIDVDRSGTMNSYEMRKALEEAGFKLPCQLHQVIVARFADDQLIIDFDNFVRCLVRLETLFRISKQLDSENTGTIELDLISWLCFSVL

Cytochrome P450 3A4, sequence (P08684 whole entry): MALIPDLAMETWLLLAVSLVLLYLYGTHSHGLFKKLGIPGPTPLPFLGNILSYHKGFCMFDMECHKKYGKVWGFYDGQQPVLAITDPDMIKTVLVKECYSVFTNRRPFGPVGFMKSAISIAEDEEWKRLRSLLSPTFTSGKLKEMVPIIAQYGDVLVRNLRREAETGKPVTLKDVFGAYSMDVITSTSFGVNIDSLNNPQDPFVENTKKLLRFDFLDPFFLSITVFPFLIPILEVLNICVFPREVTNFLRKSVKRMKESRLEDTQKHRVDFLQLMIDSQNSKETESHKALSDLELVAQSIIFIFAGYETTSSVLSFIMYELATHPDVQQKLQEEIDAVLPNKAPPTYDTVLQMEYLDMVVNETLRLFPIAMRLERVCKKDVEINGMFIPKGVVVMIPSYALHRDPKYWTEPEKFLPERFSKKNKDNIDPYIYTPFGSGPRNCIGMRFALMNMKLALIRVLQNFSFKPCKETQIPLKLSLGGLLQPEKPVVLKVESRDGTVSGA

## CNc1cc(-c2ccccc2C(F)(F)F)ncn1
Cytochrome P450 3A4
  AC50: inconclusive

## O=C1NC(=S)NC(=O)C1=NNc1ccc(-c2ccccc2)cc1[N+](=O)[O-]
Aminopeptidase N
  IC50: 10.5 µM (active)
SUMO-activating enzyme [1]
  IC50: 4.11 µM (active)
SUMO-activating enzyme [2]
  IC50: 22.4 µM (active)
[3]
  IC50: 4.83 µM (active)

## O=C(Oc1ccccc1)N1CCC2(CC1)CN(C(c1ccccc1)c1ccccc1)C2
Cytochrome P450 2C19
  AC50: 31.6 µM (inconclusive)
Cytochrome P450 2C9
  AC50: 39.8 µM (inconclusive)
Cytochrome P450 3A4
  AC50: inconclusive

## CC(C)CC(C(=O)NC(C)(C)C)N(CC1CCCO1)C(=O)c1snc(C(N)=O)c1N (configuration not stated)
Bcl-2-related protein A1
  IC50: > 20 µM (inactive)
[4]
  IC50: 13.4 µM (active)
[5]
  IC50: 11.2 µM (active)

## COc1ccc(-c2cc(-c3ccccc3)[n+](C)c(-c3ccccc3)c2)cc1.[O-][Cl+3]([O-])([O-])[O-]
[6]
  EC50: > 160 µM (inactive)
[7]
  EC50: 570 nM (active)
[8]
  EC50: 131 nM (active)
[9]
  EC50: > 60 µM (not active)
[10]
  AC50: 3.2 µM (active)
INS1
  AC50: 2.85 µM (active)

## O=C(C[n+]1cccc2ccccc21)c1ccc([N+](=O)[O-])cc1
[10]
  AC50: 6.21 µM (active)

## Cc1ccc(C(=O)N2CCN(c3ccc(C(F)(F)F)cn3)CC2)cc1
Cytochrome P450 3A4
  AC50: inconclusive

## CCCCOC(=O)c1ccc(NC(=S)NC(=O)c2c(Cl)cnn2C)cc1
Cytochrome P450 1A2
  AC50: 39.8 µM (inconclusive)
Cytochrome P450 2C9
  AC50: 39.8 µM (inconclusive)
Cytochrome P450 3A4
  AC50: inconclusive

## CCOc1ccccc1C(=O)NC(C)c1ccc2c(c1)OCO2 (configuration not stated)
[11]
  IC50: 19.1 µM (active)

## CCc1nnc(NS(=O)(=O)c2ccc(NC(=O)c3cc(Cl)ccc3Cl)cc2)s1
[11]
  IC50: 12.3 µM (active)

## Cc1noc(NS(=O)(=O)c2ccc(NC(=O)COc3ccc(Cl)cc3Cl)cc2)c1C
[11]
  IC50: 1.08 µM (active)

## Cc1ccccc1CNC(=O)CCCC(=O)n1nc(C)c2ccccc21
Bcl-2-related protein A1
  IC50: > 20 µM (inactive)
[4]
  IC50: 13.5 µM (active)
[5]
  IC50: 20 µM (active)

## Cc1cc(C(=O)N/N=C/c2ccc(-c3ccc([N+](=O)[O-])cc3C)o2)[nH]n1
[12]
  EC50: > 99 µM (inactive)
[13]
  EC50: > 99 µM (inactive)

## Cc1cccc2c1c(/N=N/C(=N)S)c(O)n2C1OC(CO)C(O)C(O)C1O (configuration not stated)
Bcl-2-related protein A1
  IC50: > 20 µM (inactive)
[4]
  IC50: 10.7 µM (active)
[5]
  IC50: 4.56 µM (active)

## C/C(=N\OCC(=O)Nc1ccccc1C(=O)O)c1cccs1
[11]
  IC50: 11 µM (active)

## O=C(Nc1ccc2oc(=O)ccc2c1)c1ccc(-c2cccc(Cl)c2)o1
SUMO-activating enzyme [1]
  IC50: 15.8 µM (active)
SUMO-activating enzyme [2]
  IC50: 6.77 µM (active)
[14]
  IC50: 11.6 µM (not active)
